Experimental data: PMC12656546, “Enterohepatic Recirculation-Mediated Reabsorption of Aristolochic Acid I: Revealed by Toxicokinetics and Metabolite Identification in Rats” (Toxics, 2025)
Where “and” joins values, the source holds several entries; their conditions need not be identical. Equal values may be shown once.

Assay: Toxicokinetic study of AAI after single oral administration (plasma, UPLC-QQQ-MS/MS, NCA)
Type: in vivo, F344 rats
Details: for Vd / t1/2 / tmax / AUC0→t / CL/F / Cmax: individual pooled profiles (animal pairs), Table S4
Description: For toxicokinetic study, forty-eight […] F344 rats (specific pathogen-free grade) were enrolled in the study, with equal numbers of males and females. All rats were purchased from Charles River Laboratory (Raleigh, NC, USA). All rats were confirmed to be healthy based on a series of physical health examinations. Rats were acclimated for 5 days at a temperature of 20–26 °C, humidity of 40–70% and a 12 h light/dark circle. The rats were randomly divided into four groups (n = 12 per group), with equal numbers of males and females in each group. The allocation was performed separately for each sex (female and male) based on body weight using a stratified randomization method. During the experiment, rats were fasted and had access to water ad libitum. To minimize confounding factors, treatments and measurements were randomized within each session. Cages from different groups were evenly distributed across racks in the same room to reduce bias from light and temperature. This study was approved by the Institutional Animal Care and Use Committee (IACUC) of the National Drug Safety Evaluation Center (Approval No. IACUC-2024-K011, 20 September 2024).
During the experiment, each rat received a single oral administration via gastric gavage. Rats in the control group were administered with 0.5% sodium carboxymethyl cellulose (CMC-Na) suspension. For the treatment groups, rats were administered with gavage solution containing 10, 30 and 100 mg/kg of AAI. The gavage solution was prepared by uniformly dispersing the reference standard of AAI in the 0.5% CMC-Na solution. After oral administration, blood samples were collected from the postorbital vein plex of rats and immediately placed in EDTA tubes. To capture potential reabsorption which might occur long after AAI administration, 15 blood sampling time points were established for each dose group. A sparse sampling approach was employed to avoid excessive blood loss in each rat. For each dosage, 12 rats were subdivided into two groups. For the first group, blood samples were collected from 6 rats at 10, 30, 60, 90, 120, 240, 420, and 600 min after AAI administration; for the second group, blood samples were collected from these 6 rats at 12, 14, 16, 18, 20, 22, and 24 h after AAI administration. Therefore, the experimental design ensured that six biological replicates were obtained for each sampling time point, enabling robust toxicokinetic analysis.
Rat plasma samples were prepared as follows: Blood was centrifuged at 13,200 rpm for 10 min. Then, 25 μL of retrieved plasma was transferred to 2 mL centrifuge tubes, followed by the addition of 75 μL of methanol/acetonitrile solution (v/v, 1∶1) containing indomethacin as internal standard (IS). After vortexing for 2 min and centrifugation for 10 min at 13,200 rpm, the supernatant was used as study samples for quantitative analysis. Quality control samples (QCs) and calibration standards were prepared by spiking blank plasma with different concentrations of AAI standard solution. The QCs and calibration standards were processed using identical procedures as the study samples.
A method of ultra-performance liquid chromatography coupled with triple quadrupole tandem mass spectrometry (UPLC-QQQ-MS/MS) was developed to achieve the quantitation of AAI in rat plasma. The LC-MS/MS analysis was performed using an Acquity UPLC I-Class system coupled with an Xevo TQ XS spectrometer (Waters, Milford, MA, USA). An Acquity UPLC BEH C18 column (2.1 mm × 50 mm, 1.7 μm, Waters, Milford, MA, USA) was employed for chromatographic separation. The mobile phases consisted of water containing 5 mmol/L ammonium formate/0.1% formic acid (A) and acetonitrile (B). The gradient elution was set as follows: 1–4 min, 10–90% B; 4–5 min, 90% B; 5–5.01 min, 90–10% B; 5.01–7 min, 10% B. The flow rate was set at 0.4 mL/min. The column temperature was maintained at 40 °C. A sample volume of 2 μL was injected for analysis. […]

[1] = high-dose (100 mg/kg), 100 mg/kg
[2] = medium-dose (30 mg/kg), 30 mg/kg
[3] = oral dose from 30 mg/kg to 100 mg/kg (3.33-fold)

For `COc1cccc2c1cc([N+](=O)[O-])c1c(C(=O)O)cc3c(c12)OCO3` [AAI, Aristolochic acid I], the Vd [1] was 23.01 L and 3.33 L and 1.48 L and 11.28 L and 7.23 L and 4.20 L, the t1/2 [1] was 20.86 h and 3.11 h and 2.58 h and 3.83 h and 2.80 h and 2.72 h and the tmax [1] was 1.00 h. For the same compound, the “sex-dependent difference in systemic exposure” value (high-dose and medium-dose groups, female vs male rats) was “female rats exhibited higher systemic exposure compared to males”, the AAI plasma concentration (low-dose (10 mg/kg oral), 18 h, individual rats M104,M105,M106,F104,F105,F106, below LLOQ set to zero) was 0.00 ng/mL and the AAI plasma concentration (low-dose (10 mg/kg oral), 20 h, individual rats M104,M105,M106,F104,F105,F106, below LLOQ set to zero) was 0.00 ng/mL. For the same compound, the AAI plasma concentration (low-dose (10 mg/kg oral), 22 h, individual rats M104,M105,M106,F104,F105,F106, below LLOQ set to zero) was 0.00 ng/mL, the AAI plasma concentration (low-dose (10 mg/kg oral), 24 h, individual rats M104,M105,M106,F104,F105,F106, below LLOQ set to zero) was 0.00 ng/mL and the AUC0→t (low-dose (10 mg/kg), 10 mg/kg) was 1221.57 ng·h/mL and 1055.94 ng·h/mL and 876.13 ng·h/mL and 990.96 ng·h/mL. The CL/F (low-dose (10 mg/kg), 10 mg/kg) was 1.53 L/h and 1.06 L/h and 1.82 L/h and 1.98 L/h and 1.38 L/h and 2.17 L/h, the Cmax (low-dose (10 mg/kg), 10 mg/kg) was 361.73 ng/mL and 436.18 ng/mL and 640.11 ng/mL and 496.76 ng/mL and 247.55 ng/mL and the Vd (low-dose (10 mg/kg), 10 mg/kg) was 2.67 L and 1.53 L and 3.03 L and 4.74 L and 1.21 L and 6.96 L. For the same compound, the t1/2 (low-dose (10 mg/kg), 10 mg/kg) was 1.00 h and 1.15 h and 1.66 h and 0.61 h and 1.21 h and 2.23 h, the tmax (low-dose (10 mg/kg), 10 mg/kg) was 0.17 h and the AAI plasma concentration (medium-dose (30 mg/kg oral), 0.167 h, individual rats M201,M202,M203,F201,F202,F203, 30 mg/kg) was 677.97 ng/mL and 891.85 ng/mL and 775.45 ng/mL and 694.87 ng/mL and 747.04 ng/mL and 424.53 ng/mL. The AAI plasma concentration (medium-dose (30 mg/kg oral), 0.5 h, individual rats M201,M202,M203,F201,F202,F203, 30 mg/kg) was 2114.14 ng/mL and 2496.11 ng/mL and 2604.27 ng/mL and 3133.29 ng/mL and 2919.69 ng/mL and 1424.98 ng/mL, the AAI plasma concentration (medium-dose (30 mg/kg oral), 1 h, individual rats M201,M202,M203,F201,F202,F203, 30 mg/kg) was 1312.37 ng/mL and 2360.84 ng/mL and 2630.67 ng/mL and 814.02 ng/mL and 1128.36 ng/mL and 777.08 ng/mL and the AAI plasma concentration (medium-dose (30 mg/kg oral), 1.5 h, individual rats M201,M202,M203,F201,F202,F203, 30 mg/kg) was 508.51 ng/mL and 594.78 ng/mL and 649.03 ng/mL and 685.24 ng/mL and 712.70 ng/mL. The AAI plasma concentration (medium-dose (30 mg/kg oral), 2 h, individual rats M201,M202,M203,F201,F202,F203, 30 mg/kg) was 634.01 ng/mL and 354.12 ng/mL and 602.07 ng/mL and 438.37 ng/mL and 724.22 ng/mL and 539.10 ng/mL, the AAI plasma concentration (medium-dose (30 mg/kg oral), 4 h, individual rats M201,M202,M203,F201,F202,F203, 30 mg/kg) was 90.61 ng/mL and 161.84 ng/mL and 196.08 ng/mL and 93.85 ng/mL and 264.87 ng/mL and 468.11 ng/mL and the AAI plasma concentration (medium-dose (30 mg/kg oral), 7 h, individual rats M201,M202,M203,F201,F202,F203, 30 mg/kg) was 72.74 ng/mL and 83.75 ng/mL and 104.71 ng/mL and 69.29 ng/mL and 131.52 ng/mL and 64.74 ng/mL. The AAI plasma concentration (medium-dose (30 mg/kg oral), 10 h, individual rats M201,M202,M203,F201,F202,F203, 30 mg/kg) was 26.96 ng/mL and 52.18 ng/mL and 50.62 ng/mL and 70.78 ng/mL and 76.59 ng/mL and 58.20 ng/mL, the AAI plasma concentration (medium-dose (30 mg/kg oral), 12 h, individual rats M204,M205,M206,F204,F205,F206, 30 mg/kg) was 1.92 ng/mL and 6.45 ng/mL and 1.24 ng/mL and 2.81 ng/mL and 3.93 ng/mL and 3.49 ng/mL and the AAI plasma concentration (medium-dose (30 mg/kg oral), 14 h, individual rats M204,M205,M206,F204,F205,F206, 30 mg/kg) was 2.74 ng/mL and 3.87 ng/mL and 2.17 ng/mL and 2.87 ng/mL. For the same compound, the AAI plasma concentration (medium-dose (30 mg/kg oral), 16 h, individual rats M204,M205,M206,F204,F205,F206, 30 mg/kg) was 0.61 ng/mL and 2.32 ng/mL and 0.38 ng/mL and 4.36 ng/mL and 5.23 ng/mL and 10.35 ng/mL, the AAI plasma concentration (medium-dose (30 mg/kg oral), 18 h, individual rats M204,M205,M206,F204,F205,F206, 30 mg/kg) was 0.83 ng/mL and 5.49 ng/mL and 0.29 ng/mL and 6.28 ng/mL and 4.31 ng/mL and 13.62 ng/mL and the AAI plasma concentration (medium-dose (30 mg/kg oral), 20 h, individual rats M204,M205,M206,F204,F205,F206, 30 mg/kg) was 0.91 ng/mL and 3.14 ng/mL and 0.30 ng/mL and 7.63 ng/mL and 13.88 ng/mL and 9.00 ng/mL. For the same compound, the AAI plasma concentration (medium-dose (30 mg/kg oral), 22 h, individual rats M204,M205,M206,F204,F205,F206, 30 mg/kg) was 0.40 ng/mL and 4.38 ng/mL and 0.15 ng/mL and 6.11 ng/mL and 48.38 ng/mL and 35.23 ng/mL, the AAI plasma concentration (medium-dose (30 mg/kg oral), 24 h, individual rats M204,M205,M206,F204,F205,F206, 30 mg/kg) was 0.23 ng/mL and 8.71 ng/mL and the AUC0→t [2] was 4703.09 ng·h/mL and 3783.95 ng·h/mL and 3228.59 ng·h/mL and 3983.95 ng·h/mL and 4581.00 ng·h/mL. For the same compound, the CL/F [2] was 1.18 L/h and 0.80 L/h and 1.03 L/h and 1.79 L/h and 1.32 L/h and 1.20 L/h, the Cmax [2] was 2919.69 ng/mL and 1424.98 ng/mL and 2114.14 ng/mL and 2496.11 ng/mL and 2630.67 ng/mL and 3133.29 ng/mL and the Vd [2] was 5.23 L and 4.46 L and 4.94 L and 5.21 L (2×) and 2.97 L. The t1/2 [2] was 3.85 h and 3.33 h and 2.02 h and 2.73 h and 1.71 h and 3.08 h, the tmax [2] was 1.00 h and the “fold increase in AUC0→t” value [3] was 4.3 fold. The “fold increase in Cmax” value [3] was 3.7 fold.
